As a reminder, the pIC50 is the negative decadic logarithm of the IC50, by convention in mol/L.

Among the data in patent US9012443B2 (Amgen Inc., priority 2011, dated 2015) are IC50 values, retold here.

For this assay, the target named is Nav 1.7 (Homo sapiens (Human), UniProt Q15858). Nature of the assay: Nav 1.7 in vitro PX assay (PatchXpress whole cell voltage clamp). It is filed as cell-based. The settings on record: 293 cells, human Nav1.7, partially inactivated state; read-out: Nav1.7 PX IC50 IP. The method, then: Nav 1.7 In Vitro PX Assay
Chain of Nav 1.7 (Q15858 whole entry): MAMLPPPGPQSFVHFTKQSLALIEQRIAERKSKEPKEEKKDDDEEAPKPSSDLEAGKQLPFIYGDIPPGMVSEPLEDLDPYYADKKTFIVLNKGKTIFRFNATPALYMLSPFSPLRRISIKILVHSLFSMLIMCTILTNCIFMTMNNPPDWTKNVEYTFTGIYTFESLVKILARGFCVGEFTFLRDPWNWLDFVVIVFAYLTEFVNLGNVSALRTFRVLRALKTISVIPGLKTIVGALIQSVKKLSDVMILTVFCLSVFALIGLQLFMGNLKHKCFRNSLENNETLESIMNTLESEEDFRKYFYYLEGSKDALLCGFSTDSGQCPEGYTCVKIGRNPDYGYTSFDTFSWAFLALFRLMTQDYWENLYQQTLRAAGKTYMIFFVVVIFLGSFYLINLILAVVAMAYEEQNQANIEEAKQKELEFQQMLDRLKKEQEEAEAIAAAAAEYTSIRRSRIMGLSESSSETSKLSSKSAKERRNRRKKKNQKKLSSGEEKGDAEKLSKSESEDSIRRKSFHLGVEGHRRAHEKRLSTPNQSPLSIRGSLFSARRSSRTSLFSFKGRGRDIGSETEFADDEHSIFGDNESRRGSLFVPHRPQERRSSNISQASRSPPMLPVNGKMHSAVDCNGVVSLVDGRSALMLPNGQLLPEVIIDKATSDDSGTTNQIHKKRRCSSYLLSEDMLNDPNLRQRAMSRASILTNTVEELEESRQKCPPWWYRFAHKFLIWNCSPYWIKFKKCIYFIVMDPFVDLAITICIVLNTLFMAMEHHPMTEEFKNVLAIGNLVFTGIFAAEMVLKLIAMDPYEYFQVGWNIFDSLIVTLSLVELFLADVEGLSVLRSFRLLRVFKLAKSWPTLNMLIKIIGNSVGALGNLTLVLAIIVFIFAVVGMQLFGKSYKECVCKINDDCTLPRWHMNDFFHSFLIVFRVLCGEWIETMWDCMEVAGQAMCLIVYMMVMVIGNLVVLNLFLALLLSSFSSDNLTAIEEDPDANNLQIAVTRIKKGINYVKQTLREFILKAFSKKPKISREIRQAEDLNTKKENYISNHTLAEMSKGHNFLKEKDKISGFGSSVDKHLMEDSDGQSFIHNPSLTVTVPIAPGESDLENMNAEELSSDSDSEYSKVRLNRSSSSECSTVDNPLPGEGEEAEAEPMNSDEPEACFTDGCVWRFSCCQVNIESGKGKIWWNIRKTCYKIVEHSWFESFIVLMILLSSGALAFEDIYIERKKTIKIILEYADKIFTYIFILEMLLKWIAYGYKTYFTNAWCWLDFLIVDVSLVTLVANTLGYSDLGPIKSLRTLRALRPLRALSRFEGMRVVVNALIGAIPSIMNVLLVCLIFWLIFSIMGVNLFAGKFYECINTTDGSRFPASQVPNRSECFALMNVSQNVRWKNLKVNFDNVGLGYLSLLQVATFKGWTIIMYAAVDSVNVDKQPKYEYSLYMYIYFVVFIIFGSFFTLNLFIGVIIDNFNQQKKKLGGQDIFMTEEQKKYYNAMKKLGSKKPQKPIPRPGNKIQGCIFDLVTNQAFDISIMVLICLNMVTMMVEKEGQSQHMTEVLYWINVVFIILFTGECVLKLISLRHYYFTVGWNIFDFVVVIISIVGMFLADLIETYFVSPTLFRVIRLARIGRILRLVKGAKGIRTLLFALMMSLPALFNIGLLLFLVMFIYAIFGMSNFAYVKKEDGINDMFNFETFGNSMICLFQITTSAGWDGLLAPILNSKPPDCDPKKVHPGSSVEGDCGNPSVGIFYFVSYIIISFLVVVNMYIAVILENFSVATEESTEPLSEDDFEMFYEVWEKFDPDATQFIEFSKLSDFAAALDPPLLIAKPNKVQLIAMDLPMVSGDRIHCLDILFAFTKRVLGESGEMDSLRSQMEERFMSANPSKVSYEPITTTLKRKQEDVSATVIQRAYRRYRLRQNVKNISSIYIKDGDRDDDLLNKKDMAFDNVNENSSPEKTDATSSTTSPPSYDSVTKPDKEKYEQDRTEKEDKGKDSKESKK
293 cells stably transfected with human Nav1.7 were recorded in whole cell voltage clamp mode with the PatchXpress automated electrophysiology system (Molecular Devices, LLC, Sunnyvale, Calif.). Compound effects were measured on a partially inactivated state of the sodium channel. Cells were clamped to a holding potential yielding 20 to 50% inactivation. To elicit sodium current, channels were activated by pulsing to −10 mV for 20 msec. […] A single concentration of test compound was applied to cells for a duration of 3 minutes. Peak sodium current was measured at the end of the compound addition period to determine percent inhibition. Three to five cells were tested per concentration, and IC50 curves were fitted to percent inhibition as a function of concentration.

SMILES strings stand for the structures. pIC50: −log10 of the molar value.

For `COc1ncc(Cl)cc1-c1ncnc2cc(S(=O)(=O)Nc3nccs3)ccc12` [Example 541, 4-(5-CHLORO-2-METHOXYPYRIDIN-3-YL)-N-(THIAZOL-2-YL)QUINAZOLINE-7-SULFONAMIDE], the negative logarithm of the IC50 (pIC50) is 5.74. As for `COc1cc(-c2cccnc2C)ccc1-c1nccc2cc(S(=O)(=O)Nc3ccncn3)ccc12` [Example 476, 1-(2-METHOXY-4-(2-METHYLPYRIDIN-3-YL)PHENYL)-N-(PYRIMIDIN-4-YL)ISOQUINOLINE-6-SULFONAMIDE], the figure is 5.54; as for `COc1cc(-c2ccc(C#N)cc2)ccc1-c1nccc2cc(S(=O)(=O)Nc3ccncn3)ccc12` [Example 455, 1-(4′-CYANO-3-METHOXY-[1,1′-BIPHENYL]-4-YL)-N-(PYRIMIDIN-4-YL)ISOQUINOLINE-6-SULFONAMIDE], 6.04. With `O=S(=O)(Nc1ncns1)c1ccc2c(N3CCC[C@@H]3c3ccncc3)cccc2c1` (single isomer, unassigned) [Example 90] the figure was 7.41; with `CC(C#N)Oc1cc(F)ccc1-c1nccc2cc(S(=O)(=O)Nc3nccs3)ccc12` (stereo not shown) [Example 415, 1-(2-(1-CYANOETHOXY)-4-FLUOROPHENYL)-N-(THIAZOL-2-YL)ISOQUINOLINE-6-SULFONAMIDE], 5.97. Regarding `COc1ccc(-c2ccc(-c3nccc4cc(S(=O)(=O)Nc5ccncn5)ccc34)c(OC)c2)cn1` [Example 483, 1-(2-METHOXY-4-(6-METHOXYPYRIDIN-3-YL)PHENYL)-N-(PYRIMIDIN-4-YL)ISOQUINOLINE-6-SULFONAMIDE], the pIC50 was 5.85. As for `COc1cc(C(F)(F)F)ccc1-c1nccc2cc(S(=O)(=O)Nc3ccc(F)cn3)ccc12` [Example 427, N-(5-FLUOROPYRIDIN-2-YL)-1-(2-METHOXY-4-(TRIFLUOROMETHYL)PHENYL)ISOQUINOLINE-6-SULFONAMIDE], the figure is 5.35; as for `COc1cc(-c2cncc(C)c2)ccc1-c1nccc2cc(S(=O)(=O)Nc3ccncn3)ccc12` [Example 478, 1-(2-METHOXY-4-(5-METHYLPYRIDIN-3-YL)PHENYL)-N-(PYRIMIDIN-4-YL)ISOQUINOLINE-6-SULFONAMIDE], 5.44. With `COc1ncccc1-c1ncc(F)c2cc(S(=O)(=O)Nc3nccs3)ccc12` [Example 396, 4-FLUORO-1-(2-METHOXYPYRIDIN-3-YL)-N-(THIAZOL-2-YL)ISOQUINOLINE-6-SULFONAMIDE] the figure was 5.98. Turning to `COc1cc(Oc2ccccc2F)ccc1-c1nccc2cc(S(=O)(=O)Nc3ccncn3)ccc12` [Example 465, 1-(4-(2-FLUOROPHENOXY)-2-METHOXYPHENYL)-N-(PYRIMIDIN-4-YL)ISOQUINOLINE-6-SULFONAMIDE], the pIC50 was 6.25. For the molecule `COc1cc(C(F)(F)F)ccc1-c1cnnc2cc(S(=O)(=O)Nc3ccncn3)ccc12` [Example 260, 4-(2-METHOXY-4-(TRIFLUOROMETHYL)PHENYL)-N-(PYRIMIDIN-4-YL)CINNOLINE-7-SULFONAMIDE], the pIC50 was 5.90. With `COc1cc(C(F)(F)F)ccc1-c1nc(=O)[nH]c2cc(S(=O)(=O)Nc3nccs3)ccc12` [Example 543, 4-(2-METHOXY-4-(TRIFLUOROMETHYL)PHENYL)-2-OXO-N-(THIAZOL-2-YL)-1,2-DIHYDROQUINAZOLINE-7-SULFONAMIDE] the figure was 5.34; with `COc1ccc(Cl)cc1-c1n[nH]c(=O)c2cc(S(=O)(=O)Nc3ccncn3)ccc12` [Example 504, 1-(5-CHLORO-2-METHOXYPHENYL)-4-OXO-N-(PYRIMIDIN-4-YL)-3,4-DIHYDROPHTHALAZINE-6-SULFONAMIDE], 5.80; with `COc1ccccc1-c1ncc(C#N)c2cc(S(=O)(=O)Nc3nccs3)ccc12` [Example 400, 4-CYANO-1-(2-METHOXYPHENYL)-N-(THIAZOL-2-YL)ISOQUINOLINE-6-SULFONAMIDE], 5.88. For the molecule `COc1cc(-c2cccnc2)c(F)cc1-c1nccc2cc(S(=O)(=O)Nc3nncs3)ccc12` [Example 367, 1-(5-FLUORO-2-METHOXY-4-(PYRIDIN-3-YL)PHENYL)-N-(1,3,4-THIADIAZOL-2-YL)ISOQUINOLINE-6-SULFONAMIDE], the pIC50 was 5.85. For `Cc1cc(Cl)ccc1-c1nccc2cc(S(=O)(=O)Nc3ccncn3)ccc12` [Example 357], the pIC50 was 5.73. With `COc1cc(C(F)(F)F)ccc1-c1n[nH]c(=O)c2cc(S(=O)(=O)Nc3ccncn3)ccc12` [Example 506, 1-(2-METHOXY-4-(TRIFLUOROMETHYL)PHENYL)-4-OXO-N-(PYRIMIDIN-4-YL)-3,4-DIHYDROPHTHALAZINE-6-SULFONAMIDE] the figure was 5.52; with `Cc1cnc(OC2CCNCC2)c(-c2nccc3cc(S(=O)(=O)Nc4nccs4)ccc23)c1` [Example 378, 1-(5-METHYL-2-(PIPERIDIN-4-YLOXY)PYRIDIN-3-YL)-N-(THIAZOL-2-YL)ISOQUINOLINE-6-SULFONAMIDE], 5.62; with `COc1cc(C(F)(F)F)ccc1-c1nccc2cc(S(=O)(=O)Nc3ncco3)ccc12` [Example 389, 1-(2-METHOXY-4-(TRIFLUOROMETHYL)PHENYL)-N-(OXAZOL-2-YL)ISOQUINOLINE-6-SULFONAMIDE], 5.55. With `CC(C)(O)c1ccccc1-c1nccc2cc(S(=O)(=O)Nc3nccs3)ccc12` [Example 384, 1-(2-(2-HYDROXYPROPAN-2-YL)PHENYL)-N-(THIAZOL-2-YL)ISOQUINOLINE-6-SULFONAMIDE], the negative logarithm of the IC50 (pIC50) is 5.17. As for `COc1cc(Cl)ccc1-c1ncnc2cc(S(=O)(=O)Nc3ccncn3)ccc12` [Example 526, 4-(4-CHLORO-2-METHOXYPHENYL)-N-(PYRIMIDIN-4-YL)QUINAZOLINE-7-SULFONAMIDE], the figure is 5.64. With `Cc1ccccc1-c1nccc2cc(S(=O)(=O)Nc3nccs3)ccc12` [Example 178, N-(THIAZOL-2-YL)-1-(O-TOLYL)ISOQUINOLINE-6-SULFONAMIDE] the figure was 5.73. Take `COc1cc(C(F)(F)F)ccc1-c1nc(C)nc2cc(S(=O)(=O)Nc3ccncn3)ccc12` [Example 518, 4-(2-METHOXY-4-(TRIFLUOROMETHYL)PHENYL)-2-METHYL-N-(PYRIMIDIN-4-YL)QUINAZOLINE-7-SULFONAMIDE]: the pIC50 was 5.59.

In the case of `COc1ccccc1-c1c(Br)cnc2cc(S(=O)(=O)Nc3nccs3)ccc12` [Example 325, 3-BROMO-4-(2-METHOXYPHENYL)-N-(THIAZOL-2-YL)QUINOLINE-7-SULFONAMIDE], the pIC50 is 5.29. With `COc1cc(C(F)(F)F)ccc1-c1nccc2cc(S(=O)(=O)Nc3cocn3)ccc12` [Example 440, 1-(2-METHOXY-4-(TRIFLUOROMETHYL)PHENYL)-N-(OXAZOL-4-YL)ISOQUINOLINE-6-SULFONAMIDE] the figure was 5.39; with `COc1cc(C(F)(F)F)ccc1-c1nccc2cc(S(=O)(=O)Nc3nnc(Cl)s3)ccc12` [Example 425, N-(5-CHLORO-1,3,4-THIADIAZOL-2-YL)-1-(2-METHOXY-4-(TRIFLUOROMETHYL)PHENYL)ISOQUINOLINE-6-SULFONAMIDE], 5.66; with `COc1cc(-c2cccnc2F)ccc1-c1nccc2cc(S(=O)(=O)Nc3ccncn3)ccc12` [Example 473, 1-(4-(2-FLUOROPYRIDIN-3-YL)-2-METHOXYPHENYL)-N-(PYRIMIDIN-4-YL)ISOQUINOLINE-6-SULFONAMIDE], 5.87.

`NC(=O)COc1cc(F)ccc1-c1nccc2cc(S(=O)(=O)Nc3nccs3)ccc12` [Example 417, 2-(5-FLUORO-2-(6-(N-(THIAZOL-2-YL)SULFAMOYL)ISOQUINOLIN-1-YL)PHENOXY)ACETAMIDE]: the pIC50 was 5.91.

As for `COc1ccccc1-c1ccnc2cc(S(=O)(=O)Nc3ccncn3)ccc12` [Example 281, 4-(2-METHOXYPHENYL)-N-(PYRIMIDIN-4-YL)QUINOLINE-7-SULFONAMIDE], the pIC50 is 5.71.

Regarding `COc1cc(C(F)F)c(OC)cc1-c1nccc2cc(S(=O)(=O)Nc3ccncn3)ccc12` [Example 453, 1-(4-(DIFLUOROMETHYL)-2,5-DIMETHOXYPHENYL)-N-(PYRIMIDIN-4-YL)ISOQUINOLINE-6-SULFONAMIDE], the pIC50 was 5.31.

Consider `COc1cc(C(F)(F)F)ccc1-c1nccc2cc(S(=O)(=O)Nc3nc(C)cs3)ccc12` [Example 424, 1-(2-METHOXY-4-(TRIFLUOROMETHYL)PHENYL)-N-(4-METHYLTHIAZOL-2-YL)ISOQUINOLINE-6-SULFONAMIDE], for which the negative logarithm of the IC50 (pIC50) is 5.78. As for `N#CCOc1cc(Cl)ccc1-c1nccc2cc(S(=O)(=O)Nc3ncns3)ccc12` [Example 404, 1-(4-CHLORO-2-(CYANOMETHOXY)PHENYL)-N-(1,2,4-THIADIAZOL-5-YL)ISOQUINOLINE-6-SULFONAMIDE 2,2,2-TRIFLUOROACETATE], the pIC50 is 6.37. As for `COc1nc(Cl)ccc1-c1nccc2cc(S(=O)(=O)Nc3nccs3)ccc12` [Example 408, 1-(6-CHLORO-2-METHOXYPYRIDIN-3-YL)-N-(THIAZOL-2-YL)ISOQUINOLINE-6-SULFONAMIDE], the figure is 6.01.

For the molecule `Cc1cc(C#N)ccc1-c1ccnc2cc(S(=O)(=O)Nc3ncns3)ccc12` [Example 323], the pIC50 was 5.64. With `COc1cc(C(F)(F)F)ccc1-c1nccc2cc(S(=O)(=O)Nc3ncc(Cl)s3)ccc12` [Example 420, N-(5-CHLOROTHIAZOL-2-YL)-1-(2-METHOXY-4-(TRIFLUOROMETHYL)PHENYL)ISOQUINOLINE-6-SULFONAMIDE] the figure was 6.44; with `COc1ncc(F)cc1-c1nccc2cc(S(=O)(=O)Nc3nccs3)ccc12` [Example 410, 1-(5-FLUORO-2-METHOXYPYRIDIN-3-YL)-N-(THIAZOL-2-YL)ISOQUINOLINE-6-SULFONAMIDE], 5.78. `COc1cc(C(F)(F)F)ccc1-c1c[nH]c(=O)c2cc(S(=O)(=O)Nc3nccs3)ccc12` [Example 544, 4-(2-METHOXY-4-(TRIFLUOROMETHYL)PHENYL)-1-OXO-N-(THIAZOL-2-YL)-1,2-DIHYDROISOQUINOLINE-7-SULFONAMIDE]: the negative-log IC50 (pIC50) is 6.15.
